Assay results reported in patent US20070015223A1, “Method of detecting substance to be analyzed” (OLYMPUS CORPORATION, priority 2003, published 2007).

Columns and labels:
[1] = tested on: genes to be analyzed in rat liver; assay: microarray expression level ratio, sample amount quantified and matched (Example 5, Table 2)
[2] = tested on: genes to be analyzed in rat liver; assay: microarray expression level ratio, tyramide reaction time adjusted by GAPDH spot signal intensity (Example 7, Table 1)
[3] = tested on: genes to be analyzed in rat liver; assay: microarray expression level ratio, control experiment with fixed tyramide reaction time of 5 minutes (Table 3)
[4] = Phenobal group rat liver, aRNA 200 ng, Deposition Time 5 min.
[5] = rat liver, aRNA 200 ng both, Deposition Time 5 min. both
[6] = Phenobal group rat liver, aRNA 400 ng, Deposition Time 2 min.
[7] = rat liver, aRNA 400 ng vs 100 ng, Deposition Time 2 min. vs 7 min.
[8] = Phenobal group rat liver, aRNA 400 ng, Deposition Time 5 min.
[9] = rat liver, aRNA 400 ng vs 100 ng, Deposition Time 5 min. both, corrected using the internal standard gene

Question: For `CCC1(c2ccccc2)C(=O)NC(=O)NC1=O` [Phenobal, phenobarbital], which “Raw Data (spot signal intensity), Gene a” value [1, 4] is on record?
Answer: 650

Question: And the “Raw Data (spot signal intensity), Gene b” value [1, 4]?
Answer: 745

Question: And the “Raw Data (spot signal intensity), Gene c” value [1, 4]?
Answer: 255

Question: What about the “Raw Data (spot signal intensity), Gene d” value [1, 4] of the same compound?
Answer: 2900

Question: And the “Raw Data (spot signal intensity), Gene e” value [1, 4]?
Answer: 550

Question: And the “Raw Data (spot signal intensity), Gene f” value [1, 4]?
Answer: 65

Question: And the “Raw Data (spot signal intensity), Gene GAPDH” value (“Raw Data … Gene GAPDH” for short) ([1]; internal standard gene, Phenobal group rat liver, aRNA 200 ng, Deposition Time 5 min.)?
Answer: 2500

Question: What about the “Ratio (Phenobal/Control), Gene GAPDH” value ([1]; internal standard gene, rat liver, aRNA 200 ng both, Deposition Time 5 min. both) of the same compound?
Answer: 1.0

Question: What about the “Ratio (Phenobal/Control), Gene a” value [1, 5] of the same compound?
Answer: 1.8

Question: And the “Ratio (Phenobal/Control), Gene b” value [1, 5]?
Answer: 2.6

Question: What about the “Ratio (Phenobal/Control), Gene c” value [1, 5] of the same compound?
Answer: 0.5

Question: What about the “Ratio (Phenobal/Control), Gene d” value [1, 5] of the same compound?
Answer: 2.1

Question: What about the “Ratio (Phenobal/Control), Gene e” value [1, 5] of the same compound?
Answer: 0.2

Question: And the “Ratio (Phenobal/Control), Gene f” value [1, 5]?
Answer: 1.1

Question: And the “Raw Data (spot signal intensity), Gene A” value [2, 6]?
Answer: 680

Question: And the “Raw Data (spot signal intensity), Gene B” value [2, 6]?
Answer: 750

Question: What about the “Raw Data (spot signal intensity), Gene C” value [2, 6] of the same compound?
Answer: 250

Question: And the “Raw Data (spot signal intensity), Gene D” value [2, 6]?
Answer: 2800

Question: And the “Raw Data (spot signal intensity), Gene E” value [2, 6]?
Answer: 500

Question: What about the “Raw Data (spot signal intensity), Gene F” value [2, 6] of the same compound?
Answer: 60

Question: And the “Raw Data … Gene GAPDH” value ([2]; internal standard gene, Phenobal group rat liver, aRNA 400 ng, Deposition Time 2 min.)?
Answer: 2500

Question: And the “Ratio (Phenobal/Control), Gene GAPDH” value ([2]; internal standard gene, rat liver, aRNA 400 ng vs 100 ng, Deposition Time 2 min. vs 7 min.)?
Answer: 1.0

Question: And the “Ratio (Phenobal/Control), Gene A” value [2, 7]?
Answer: 1.8

Question: What about the “Ratio (Phenobal/Control), Gene B” value [2, 7] of the same compound?
Answer: 2.8

Question: What about the “Ratio (Phenobal/Control), Gene C” value [2, 7] of the same compound?
Answer: 0.5

Question: And the “Ratio (Phenobal/Control), Gene D” value [2, 7]?
Answer: 1.9

Question: What about the “Ratio (Phenobal/Control), Gene E” value [2, 7] of the same compound?
Answer: 0.2

Question: And the “Ratio (Phenobal/Control), Gene F” value [2, 7]?
Answer: 1.2

Question: What about the “Raw Data (spot signal intensity), Gene a” value [3, 8] of the same compound?
Answer: 1700

Question: What about the “Raw Data (spot signal intensity), Gene b” value [3, 8] of the same compound?
Answer: 1875

Question: And the “Raw Data (spot signal intensity), Gene c” value [3, 8]?
Answer: 625

Question: What about the “Raw Data (spot signal intensity), Gene d” value [3, 8] of the same compound?
Answer: 4095

Question: What about the “Raw Data (spot signal intensity), Gene e” value [3, 8] of the same compound?
Answer: 1250

Question: What about the “Raw Data (spot signal intensity), Gene f” value [3, 8] of the same compound?
Answer: 150

Question: What about the “Raw Data … Gene GAPDH” value ([3]; internal standard gene, Phenobal group rat liver, aRNA 400 ng, Deposition Time 5 min.) of the same compound?
Answer: 4095

Question: And the “Ratio (Phenobal/Control), Gene GAPDH” value ([3]; internal standard gene, rat liver, aRNA 400 ng vs 100 ng, Deposition Time 5 min. both)?
Answer: 1.0

Question: And the “Ratio (Phenobal/Control), Gene a” value [3, 9]?
Answer: 2.6

Question: What about the “Ratio (Phenobal/Control), Gene b” value [3, 9] of the same compound?
Answer: 4.1

Question: And the “Ratio (Phenobal/Control), Gene c” value [3, 9]?
Answer: 0.7

Question: And the “Ratio (Phenobal/Control), Gene d” value [3, 9]?
Answer: 1.6

Question: And the “Ratio (Phenobal/Control), Gene e” value [3, 9]?
Answer: 0.2

Question: And the “Ratio (Phenobal/Control), Gene f” value [3, 9]?
Answer: 1.6
